This is an account of results in patent publication US12281125B2, “Rapamycin derivatives” (NOVARTIS AG, priority 2018, dated 2025).

The test deals with mTORc1 signaling, pS6 (Ser240/244) in MEF TSCl−/− cells. Put plainly: Cell-based assay for rapalog potency (pS6) in MEF TSCl−/− cells. The following applies: Mus musculus, 2 hours treatment, average from multiple assays. The protocol:
Rapalog potency was determined using MEF TSCl−/− cell based assay. MEF TSCl−/− cells are Mouse Embryonic Fibroblasts deficient in Tuberous sclerosis protein—TSCl, which negatively regulates mTORc1 signaling and thus display constitutive mTORc1 activation, resulting in phosphorylation (activation) of downstream molecules. This cell-based assay is used to measure inhibition (de-phosphorylation) of S6 and 4EBP1 by rapalogs or other mTOR inhibitors.
MEF TSCl−/− cells were plated on Poly-D-lysine coated 384 well Griener clear bottom plates and incubated overnight at 37° C., 5% CO2. On the following day, cells were washed 8 times with “Hard starve” solution (1 L DPBS+1 g D-(+) glucose+10 ml of 7.5% Sodium Bicarbonate+20 ml of 1M HEPES) and incubated for further 2 hours in the same solution. Cells were next treated with compounds with decreasing concentrations (8 points at 3.16 fold dilutions) and incubated for 2 hours at 37° C., 5% CO2. Cells were fixed with 4% paraformaldehyde for 30 min and washed 5 times with TBS-EDTA followed by immuno-staining with fluorescent tag labeled antibodies for pS6 (Ser240/244) (Cell Signaling #9468) and p4EBP1 (Thr 37/46) (Cell Signaling #5123). Nuclei were visualized with Hoechst (ThermoFisher Scientific #H3570) staining. Cells were imaged (InCell 600) using respective fluorescence channels and the potency of mTOR inhibitors was defined by pS6 IC50 (nM).
In vitro potency of mTOR inhibitors was defined by pS6 IC50 (nM) in MEF TSCl−/− cells.
IC50 values are calculated as the average from multiple assays.

As to `CO[C@@H]1C[C@H](C[C@@H](C)[C@@H]2CC[C@H](C)/C=C(\C)[C@@H](O)[C@@H](OC)C(=O)[C@H](C)C[C@H](C)/C=C/C=C/C=C(\C)[C@@H](NS(=O)(=O)C(C)C)C[C@@H]3CC[C@@H](C)[C@@](O)(O3)C(=O)C(=O)N3CCCC[C@H]3C(=O)O2)CC[C@H]1O` [Compound 7], the 50% inhibitory concentration (IC50) was 2.4 nM.

As for `CCCS(=O)(=O)N[C@@H]1C[C@@H]2CC[C@@H](C)[C@@](O)(O2)C(=O)C(=O)N2CCCC[C@H]2C(=O)O[C@H]([C@H](C)C[C@@H]2CC[C@@H](O)[C@H](OC)C2)CC[C@H](C)/C=C(\C)[C@@H](O)[C@@H](OC)C(=O)[C@H](C)C[C@H](C)/C=C/C=C/C=C/1C` [Compound 6], it took 13 nM to reach half-maximal inhibition (IC50).

Compound `CO[C@@H]1C[C@H](C[C@@H](C)[C@@H]2CC[C@H](C)/C=C(\C)[C@@H](O)[C@@H](OC)C(=O)[C@H](C)C[C@H](C)/C=C/C=C/C=C(\C)[C@H](NS(C)(=O)=O)C[C@@H]3CC[C@@H](C)[C@@](O)(O3)C(=O)C(=O)N3CCCC[C@H]3C(=O)O2)CC[C@H]1OCCO` [Compound 25] yielded a concentration for half-maximal inhibition (IC50) of 1.8 nM. This IC50 is about 7.2-fold lower than that of the compound before. In the case of `CO[C@@H]1C[C@H](C[C@@H](C)[C@@H]2CC[C@H](C)/C=C(\C)[C@@H](O)[C@@H](OC)C(=O)[C@H](C)C[C@H](C)/C=C/C=C/C=C(\C)[C@H](NS(=O)(=O)C3CCC3)C[C@@H]3CC[C@@H](C)[C@@](O)(O3)C(=O)C(=O)N3CCCC[C@H]3C(=O)O2)CC[C@H]1O` [Compound 14] it was 7.2 nM; in that of `CO[C@@H]1C[C@H](C[C@@H](C)[C@@H]2CC[C@H](C)/C=C(\C)[C@@H](O)[C@@H](OC)C(=O)[C@H](C)C[C@H](C)/C=C/C=C/C=C(\C)[C@@H](NS(=O)(=O)CC(C)C)C[C@@H]3CC[C@@H](C)[C@@](O)(O3)C(=O)C(=O)N3CCCC[C@H]3C(=O)O2)CC[C@H]1O` [Compound 9], 2.7 nM.

For `CO[C@@H]1C[C@H](C[C@@H](C)[C@@H]2CC[C@H](C)/C=C(\C)[C@@H](O)[C@@H](OC)C(=O)[C@H](C)C[C@H](C)/C=C/C=C/C=C(\C)[C@@H](NO)C[C@@H]3CC[C@@H](C)[C@@](O)(O3)C(=O)C(=O)N3CCCC[C@H]3C(=O)O2)CC[C@H]1O` [Compound 37], it took 0.21 nM to reach half-maximal inhibition (IC50). In the case of `CO[C@@H]1C[C@H](C[C@@H](C)[C@@H]2CC[C@H](C)/C=C(\C)[C@@H](O)[C@@H](OC)C(=O)[C@H](C)C[C@H](C)/C=C/C=C/C=C(\C)[C@H](NS(=O)(=O)CCO)C[C@@H]3CC[C@@H](C)[C@@](O)(O3)C(=O)C(=O)N3CCCC[C@H]3C(=O)O2)CC[C@H]1O` [Compound 20] it was 1.7 nM; in that of `CO[C@@H]1C[C@H](C[C@@H](C)[C@@H]2CC[C@H](C)/C=C(\C)[C@@H](O)[C@@H](OC)C(=O)[C@H](C)C[C@H](C)/C=C/C=C/C=C(\C)[C@H](NO)C[C@@H]3CC[C@@H](C)[C@@](O)(O3)C(=O)C(=O)N3CCCC[C@H]3C(=O)O2)CC[C@H]1O` [Compound 36], 1.6 nM; in that of `CO[C@@H]1C[C@H](C[C@@H](C)[C@@H]2CC[C@H](C)/C=C(\C)[C@@H](O)[C@@H](OC)C(=O)[C@H](C)C[C@H](C)/C=C/C=C/C=C(\C)[C@@H](NCCS(=O)(=O)O)C[C@@H]3CC[C@@H](C)[C@@](O)(O3)C(=O)C(=O)N3CCCC[C@H]3C(=O)O2)CC[C@H]1OCCO` [Compound 40], 160 nM. Take `CO[C@@H]1C[C@H](C[C@@H](C)[C@@H]2CC[C@H](C)/C=C(\C)[C@@H](O)[C@@H](OC)C(=O)[C@H](C)C[C@H](C)/C=C/C=C/C=C(\C)[C@H](NCCS(=O)(=O)O)C[C@@H]3CC[C@@H](C)[C@@](O)(O3)C(=O)C(=O)N3CCCC[C@H]3C(=O)O2)CC[C@H]1OCCO` [Compound 41]: half-maximal inhibition (IC50) was put at 33 nM. In the case of `CO[C@@H]1C[C@H](C[C@@H](C)[C@@H]2CC[C@H](C)/C=C(\C)[C@@H](O)[C@@H](OC)C(=O)[C@H](C)C[C@H](C)/C=C/C=C/C=C(\C)[C@H](NS(C)(=O)=O)C[C@@H]3CC[C@@H](C)[C@@](O)(O3)C(=O)C(=O)N3CCCC[C@H]3C(=O)O2)CC[C@H]1OP(C)(C)=O` [Compound 23] it was 26 nM.

As to `CO[C@@H]1C[C@H](C[C@@H](C)[C@@H]2CC[C@H](C)/C=C(\C)[C@@H](O)[C@@H](OC)C(=O)[C@H](C)C[C@H](C)/C=C/C=C/C=C(\C)[C@@H](NS(=O)(=O)CCCCl)C[C@@H]3CC[C@@H](C)[C@@](O)(O3)C(=O)C(=O)N3CCCC[C@H]3C(=O)O2)CC[C@H]1O` [Compound 17], the IC50 was 1.6 nM. In the case of `CO[C@@H]1C[C@H](C[C@@H](C)[C@@H]2CC[C@H](C)/C=C(\C)[C@@H](O)[C@@H](OC)C(=O)[C@H](C)C[C@H](C)/C=C/C=C/C=C(\C)[C@@H](NS(C)(=O)=O)C[C@@H]3CC[C@@H](C)[C@@](O)(O3)C(=O)C(=O)N3CCCC[C@H]3C(=O)O2)CC[C@@H]1n1cnnn1` [Compound 22] it was 0.11 nM; in that of `CCCS(=O)(=O)N[C@H]1C[C@@H]2CC[C@@H](C)[C@@](O)(O2)C(=O)C(=O)N2CCCC[C@H]2C(=O)O[C@H]([C@H](C)C[C@@H]2CC[C@@H](O)[C@H](OC)C2)CC[C@H](C)/C=C(\C)[C@@H](O)[C@@H](OC)C(=O)[C@H](C)C[C@H](C)/C=C/C=C/C=C/1C` [Compound 5], 1.8 nM. Under `CO[C@@H]1C[C@H](C[C@@H](C)[C@@H]2CC[C@H](C)/C=C(\C)[C@@H](O)[C@@H](OC)C(=O)[C@H](C)C[C@H](C)/C=C/C=C/C=C(\C)[C@@H](N(C)S(C)(=O)=O)C[C@@H]3CC[C@@H](C)[C@@](O)(O3)C(=O)C(=O)N3CCCC[C@H]3C(=O)O2)CC[C@H]1OP(C)(C)=O` [Compound 27] stands 1.9 nM. Under `CO[C@@H]1C[C@H](C[C@@H](C)[C@@H]2CC[C@H](C)/C=C(\C)[C@@H](O)[C@@H](OC)C(=O)[C@H](C)C[C@H](C)/C=C/C=C/C=C(\C)[C@@H](NS(=O)(=O)CCO)C[C@@H]3CC[C@@H](C)[C@@](O)(O3)C(=O)C(=O)N3CCCC[C@H]3C(=O)O2)CC[C@H]1O` [Compound 19] stands 0.34 nM; under `CO[C@@H]1C[C@H](C[C@@H](C)[C@@H]2CC[C@H](C)/C=C(\C)[C@@H](O)[C@@H](OC)C(=O)[C@H](C)C[C@H](C)/C=C/C=C/C=C(\C)[C@H](NS(=O)(=O)C3CCCC3)C[C@@H]3CC[C@@H](C)[C@@](O)(O3)C(=O)C(=O)N3CCCC[C@H]3C(=O)O2)CC[C@H]1O` [Compound 16], 50 nM. As for `CN[C@@H]1C[C@@H]2CC[C@@H](C)[C@@](O)(O2)C(=O)C(=O)N2CCCC[C@H]2C(=O)O[C@H]([C@H](C)C[C@@H]2CC[C@@H](O)[C@H](OC)C2)CC[C@H](C)/C=C(\C)[C@@H](O)[C@@H](OC)C(=O)[C@H](C)C[C@H](C)/C=C/C=C/C=C/1C` [Compound 32], the concentration for half-maximal inhibition (IC50) was 18 nM. Under `CO[C@@H]1C[C@H](C[C@@H](C)[C@@H]2CC[C@H](C)/C=C(\C)[C@@H](O)[C@@H](OC)C(=O)[C@H](C)C[C@H](C)/C=C/C=C/C=C(\C)[C@H](N)C[C@@H]3CC[C@@H](C)[C@@](O)(O3)C(=O)C(=O)N3CCCC[C@H]3C(=O)O2)CC[C@H]1O` [Compound 29] stands 30 nM; under `CO[C@@H]1C[C@H](C[C@@H](C)[C@@H]2CC[C@H](C)/C=C(\C)[C@@H](O)[C@@H](OC)C(=O)[C@H](C)C[C@H](C)/C=C/C=C/C=C(\C)[C@@H](NS(=O)(=O)C3CCCC3)C[C@@H]3CC[C@@H](C)[C@@](O)(O3)C(=O)C(=O)N3CCCC[C@H]3C(=O)O2)CC[C@H]1O` [Compound 15], 3.6 nM.

As to `CN[C@H]1C[C@@H]2CC[C@@H](C)[C@@](O)(O2)C(=O)C(=O)N2CCCC[C@H]2C(=O)O[C@H]([C@H](C)C[C@@H]2CC[C@@H](O)[C@H](OC)C2)CC[C@H](C)/C=C(\C)[C@@H](O)[C@@H](OC)C(=O)[C@H](C)C[C@H](C)/C=C/C=C/C=C/1C` [Compound 33], the concentration for half-maximal inhibition (IC50) was 0.67 nM.

`CO[C@@H]1C[C@H](C[C@@H](C)[C@@H]2CC[C@H](C)/C=C(\C)[C@@H](O)[C@@H](OC)C(=O)[C@H](C)C[C@H](C)/C=C/C=C/C=C(\C)[C@@H](N(O)C(=O)OC(C)(C)C)C[C@@H]3CC[C@@H](C)[C@@](O)(O3)C(=O)C(=O)N3CCCC[C@H]3C(=O)O2)CC[C@H]1O` [Compound 35] yielded an IC50 of 4.4 nM.

Compound `CO[C@@H]1C[C@H](C[C@@H](C)[C@@H]2CC[C@H](C)/C=C(\C)[C@@H](O)[C@@H](OC)C(=O)[C@H](C)C[C@H](C)/C=C/C=C/C=C(\C)[C@@H](NCCS(=O)(=O)O)C[C@@H]3CC[C@@H](C)[C@@](O)(O3)C(=O)C(=O)N3CCCC[C@H]3C(=O)O2)CC[C@H]1O` [Compound 38] showed a concentration for half-maximal inhibition (IC50) of more than 500 nM.

For `CO[C@@H]1C[C@H](C[C@@H](C)[C@@H]2CC[C@H](C)/C=C(\C)[C@@H](O)[C@@H](OC)C(=O)[C@H](C)C[C@H](C)/C=C/C=C/C=C(\C)[C@H](NS(C)(=O)=O)C[C@@H]3CC[C@@H](C)[C@@](O)(O3)C(=O)C(=O)N3CCCC[C@H]3C(=O)O2)CC[C@@H]1n1cnnn1` [Compound 21], the concentration for half-maximal inhibition (IC50) amounted to 2.1 nM.

`CO[C@@H]1C[C@H](C[C@@H](C)[C@@H]2CC[C@H](C)/C=C(\C)[C@@H](O)[C@@H](OC)C(=O)[C@H](C)C[C@H](C)/C=C/C=C/C=C(\C)[C@@H](NS(=O)(=O)C3CCC3)C[C@@H]3CC[C@@H](C)[C@@](O)(O3)C(=O)C(=O)N3CCCC[C@H]3C(=O)O2)CC[C@H]1O` [Compound 13] gave an IC50 of 5.3 nM. Against the preceding compound, the IC50 is about 2.5-fold higher.

In general, IC50 refers to the concentration at which inhibition is half-maximal.
